Consider 6 compounds from patent US20130029970A1 (priority 2009, published 2013).

One experiment concerns the target T1, human CB1 (hCB1) (Homo sapiens, UniProt P21554).
T1 construct: (cDNA clone) CNR01L000
In words: 35S GTPγS binding assay, hCB1 agonist. In kind it is biochemical. The following applies: GTPγS agonist, HEK-293 membranes; read-out: hCB1 EC50 (GTPyS ag). Background: GTPγS is a poorly hydrolysed GTP analogue; its binding reports G protein activation.

In another experiment the target is T2, human CB1 receptors (Homo sapiens, UniProt P21554).
T2 construct: (cDNA clone) CNR01L000
T2 sequence (P21554 whole entry): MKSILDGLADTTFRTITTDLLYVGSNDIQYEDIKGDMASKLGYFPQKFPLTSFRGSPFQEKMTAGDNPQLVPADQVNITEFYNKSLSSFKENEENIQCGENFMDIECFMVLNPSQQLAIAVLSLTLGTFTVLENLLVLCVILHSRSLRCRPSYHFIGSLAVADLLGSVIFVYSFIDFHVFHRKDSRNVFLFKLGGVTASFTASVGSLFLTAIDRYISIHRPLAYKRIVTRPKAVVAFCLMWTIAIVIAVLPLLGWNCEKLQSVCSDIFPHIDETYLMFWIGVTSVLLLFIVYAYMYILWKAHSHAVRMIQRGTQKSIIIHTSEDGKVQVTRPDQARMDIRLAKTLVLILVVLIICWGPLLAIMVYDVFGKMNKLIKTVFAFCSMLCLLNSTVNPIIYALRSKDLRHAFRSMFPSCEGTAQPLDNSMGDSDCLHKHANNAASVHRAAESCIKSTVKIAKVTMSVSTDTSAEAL
Nature of the experiment: cAMP assay in HEK-293 cells, hCB1 agonist. The experiment is classed as cell-based. The following applies: inhibition of forskolin-stimulated cAMP, HEK-293 cells; for EC50: read-out: hCB1 EC50 (cAMP ag). The method in brief:
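Agonist EC50 taken as concentration giving half inhibition of forskolin-driven cAMP, normalized to forskolin maximum, from sigmoidal curves. Whole HEK-293 cells stably expressing hCB1, in HEPES/BSA-containing HBSS, exposed 30 min at 37° C. to compound with forskolin (90 uM in 3× dilution); cAMP read after lysis.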

The target in experiment [1] is T3, recombinant human cannabinoid receptor CB1 (Homo sapiens, UniProt P21554).
T3 construct: (cDNA clone) CNR01L000
T3 sequence (P21554 whole entry): as above
In words: Cannabinoid receptor radioligand binding assay, [3H]-CP 55,940 displacement, hCB1. The method in brief: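 Displacement of 0.5 nM [3H]-CP 55,940 (1 μM unlabeled CP 55,940 for nonspecific) measured by filtration and scintillation counting. Binding ran 90 min at room temperature in pH 7.5 Tris buffer with 0.1% fatty-acid-free BSA, using recombinant hCB1 HEK-293 membranes at 2-10 μg protein.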

T1 sequence (P21554 whole entry): as above

`COc1ccc(C(=O)c2cc3cc(C)n(CCN4CCOCC4)c3s2)c(OC)c1` [Compound 120, (2,4-Dimethoxyphenyl)(5-methyl-6-(2-morpholinoethyl)-6H-thieno[2,3-b]pyrrol-2-yl)methanone]: the concentration for a half-maximal effect (EC50) at human CB1 (hCB1) and on human CB1 receptors was 100 to 1000 nM each time. Besides, the IC50 in experiment [1] was 100 to 1000 nM.
For `CCOc1ccc(C(=O)c2cc3cc(C)n(CCN4CCOCC4)c3s2)c(Cl)c1` [Compound 126, (2-chloro-4-ethoxyphenyl)(5-methyl-6-(2-morpholinoethyl)-6H-thieno[2,3-b]pyrrol-2-yl)methanone], the 50% effective concentration (EC50) at human CB1 (hCB1) and on human CB1 receptors was 1000 to 10000 nM throughout. Further, the half-inhibitory concentration (IC50) in experiment [1] is 100 to 1000 nM.
Take `COc1ccc(C(=O)c2cc3cc(C)n(S(=O)(=O)CCN4CCOCC4)c3s2)cc1` [Compound 139, (4-methoxyphenyl)(5-methyl-6-(2-morpholinoethylsulfonyl)-6H-thieno[2,3-b]pyrrol-2-yl)methanone]: the EC50 on human CB1 (hCB1) and at human CB1 receptors was 100 to 1000 nM throughout. In addition, the IC50 in experiment [1] lay within 100 to 1000 nM.
For `COc1ccc(C(=O)c2cc3cc(C)n(CCN4CCCOCC4)c3s2)cn1` [Compound 158, (6-(2-(1,4-oxazepan-4-yl)ethyl)-5-methyl-6H-thieno[2,3-b]pyrrol-2-yl)(6-methoxypyridin-3-yl)methanone], the EC50 at human CB1 (hCB1) was > 10000 nM. The “hCB1 EC50 (cAMP ag, nM)” value at human CB1 receptors is “NS (NS means “Not Significant,” which means less than 30% agonist activity when compared to the positive control.)”. The concentration for half-maximal inhibition (IC50) in experiment [1] fell in the range of 100 to 1000 nM.
The matching figures for `COc1ccc(C(=O)c2cc3cc(C)n(CCNC4CCOC4)c3s2)cn1` (stereo not drawn) [Compound 164, (6-methoxypyridin-3-yl)(5-methyl-6-(2-((tetrahydrofuran-3-yl)amino)ethyl)-6H-thieno[2,3-b]pyrrol-2-yl)methanone]: > 10000 nM, “NS (NS means “Not Significant,” which means less than 30% agonist activity when compared to the positive control.)” and 1000 to 10000 nM.
The matching figures for `COc1ccc(C(=O)c2cc3cc(C)n(CCN4CCCC4)c3s2)cn1` [Compound 167, (6-methoxypyridin-3-yl)(5-methyl-6-(2-(pyrrolidin-1-yl)ethyl)-6H-thieno[2,3-b]pyrrol-2-yl)methanone]: > 10000 nM, “NS (NS means “Not Significant,” which means less than 30% agonist activity when compared to the positive control.)” and < 100 nM.

In general, EC50 refers to the concentration needed to bring the measured effect to its halfway point. In general, IC50 refers to the midpoint of a concentration-inhibition curve.
